In PubChem BioAssay AID2060604 (Molecular Pharmacology Branch, DTP, NCI, 2025):
Values joined by “and” are separate entries in the source; they are usually repeats but may differ in a detail not shown here. Equal values may be shown once. Blank lines part the entries; values can stand above or below the molecule they belong to.

System: 379773-124-R-J2-PDC complex spheroids, viability % test/control
Experiment: Anticancer human tumor 379773-124-R-J2-PDC patient-derived endometrial carcinoma cell line growth inhibition [CLK]
Details: for viability, T/C: stronger effect = lower value
Method in brief: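 Patient-derived tumor cells grown as complex spheroids with HUVEC endothelial cells and mesenchymal stem cells, treated with drug combinations. Concentrations descend in half-log steps from near clinical Cmax, or from 10 microM if Cmax unknown.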

[1] = curve of first compound, second compound 0.0316 µM
[2] = curve of first compound, second compound 0.1 µM
[3] = curve of first compound, second compound 0.316 µM
[4] = curve of first compound, second compound 1 µM
[5] = curve of first compound, second compound 3.16 µM
[6] = curve of first compound, second compound 10 µM
[7] = second compound 0.0316 µM, first compound 0.0316 µM
[8] = second compound 0.0316 µM, first compound 0.1 µM
[9] = second compound 0.0316 µM, first compound 0.316 µM
[10] = second compound 0.0316 µM, first compound 1 µM
[11] = second compound 0.0316 µM, first compound 3.16 µM
[12] = second compound 0.0316 µM, first compound 10 µM
[13] = second compound 0.1 µM, first compound 0.0316 µM
[14] = second compound 0.1 µM, first compound 0.1 µM
[15] = second compound 0.1 µM, first compound 0.316 µM
[16] = second compound 0.1 µM, first compound 1 µM
[17] = second compound 0.1 µM, first compound 3.16 µM
[18] = second compound 0.1 µM, first compound 10 µM
[19] = second compound 0.316 µM, first compound 0.0316 µM
[20] = second compound 0.316 µM, first compound 0.1 µM
[21] = second compound 0.316 µM, first compound 0.316 µM
[22] = second compound 0.316 µM, first compound 1 µM
[23] = second compound 0.316 µM, first compound 3.16 µM
[24] = second compound 0.316 µM, first compound 10 µM
[25] = second compound 1 µM, first compound 0.0316 µM
[26] = second compound 1 µM, first compound 0.1 µM
[27] = second compound 1 µM, first compound 0.316 µM
[28] = second compound 1 µM, first compound 1 µM
[29] = second compound 1 µM, first compound 3.16 µM
[30] = second compound 1 µM, first compound 10 µM
[31] = second compound 3.16 µM, first compound 0.0316 µM
[32] = second compound 3.16 µM, first compound 0.1 µM
[33] = second compound 3.16 µM, first compound 0.316 µM
[34] = second compound 3.16 µM, first compound 1 µM
[35] = second compound 3.16 µM, first compound 3.16 µM
[36] = second compound 3.16 µM, first compound 10 µM
[37] = second compound 10 µM, first compound 0.0316 µM
[38] = second compound 10 µM, first compound 0.1 µM
[39] = second compound 10 µM, first compound 0.316 µM
[40] = second compound 10 µM, first compound 1 µM
[41] = second compound 10 µM, first compound 3.16 µM
[42] = second compound 10 µM, first compound 10 µM
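Note: compound exposure lasted seven days before the viability readout.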
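Throughout, for viability, T/C: 100% = DMSO vehicle control wells.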

SMILES: CC(=O)O[C@H]1C(=O)[C@@]2(C)[C@H]([C@H](OC(=O)c3ccccc3)[C@]3(O)C[C@H](OC(=O)[C@H](O)[C@@H](NC(=O)c4ccccc4)c4ccccc4)C(C)=C1C3(C)C)[C@]1(OC(C)=O)CO[C@@H]1C[C@@H]2O + CN1CCN(c2cc(C(=O)Nc3cc4cc(-c5cnn(C)c5)ccc4cn3)ccn2)CC1
IC50 [1]: < 31.6 nM | IC50 [2]: < 31.6 nM | IC50 [3]: < 31.6 nM | IC50 [4]: < 31.6 nM | IC50 [5]: < 31.6 nM | IC50 [6]: < 31.6 nM | viability, T/C [7]: 7.03% | viability, T/C [8]: 7.96% | viability, T/C [9]: 7.37% | viability, T/C [10]: 6.76% | viability, T/C [11]: 6.08% | viability, T/C [12]: 6.39% | viability, T/C [13]: 5.82% | viability, T/C [14]: 7.72% | viability, T/C [15]: 7.07% | viability, T/C [16]: 6.35% | viability, T/C [17]: 6.66% | viability, T/C [18]: 8.15% | viability, T/C [19]: 5.25% | viability, T/C [20]: 5.87% | viability, T/C [21]: 5.15% | viability, T/C [22]: 5.39% | viability, T/C [23]: 7.05% | viability, T/C [24]: 7.94% | viability, T/C [25]: 0.07% | viability, T/C [26]: 0.08% | viability, T/C [27]: 0.18% | viability, T/C [28]: 1.42% | viability, T/C [29]: 0.21% | viability, T/C [30]: 0.05% | viability, T/C [31]: 0.21% | viability, T/C [32]: 0.13% | viability, T/C [33]: 2.68% | viability, T/C [34]: 0.06% | viability, T/C [35]: 0.46% | viability, T/C [36]: 0.1% | viability, T/C [37]: 0.05% | viability, T/C [38]: 1.24% | viability, T/C [39]: 0.14% | viability, T/C [40]: 0.91% | viability, T/C [41]: 0.48% | viability, T/C [42]: 0.46%

IC50 (curve of compound): 5210 nM
SMILES: COC1C=CCC(C)C(C)S(=O)(=O)NC(=O)c2ccc3c(c2)N(CC2CCC21)CC1(CCCc2cc(Cl)ccc21)CO3 (stereo not drawn)
viability, T/C (compound 0.0316 µM): 96.5% and 98.1% | viability, T/C (compound 0.1 µM): 91.1% and 82% | viability, T/C (compound 0.316 µM): 98.4% and 83.7% | viability, T/C (compound 1 µM): 98.3% and 78.7% | viability, T/C (compound 3.16 µM): 84.1% and 88.6% | viability, T/C (compound 10 µM): 5.48% and 2.76%

IC50 (curve of compound): > 10000 nM
SMILES: CCCS(=O)(=O)Nc1ccc(F)c(C(=O)c2c[nH]c3ncc(-c4ccc(Cl)cc4)cc23)c1F
viability, T/C (compound 0.0316 µM): 83.1% and 93.8% | viability, T/C (compound 0.1 µM): 88.5% and 84.4% | viability, T/C (compound 0.316 µM): 85.2% and 98.8% | viability, T/C (compound 1 µM): 100% and 90.3% | viability, T/C (compound 3.16 µM): 81.5% and 78.6% | viability, T/C (compound 10 µM): 64.6% and 53.6%

SMILES: COc1cccc2c1C(=O)c1c(O)c3c(c(O)c1C2=O)CC(O)(C(=O)CO)CC3OC1CC(N)C(O)C(C)O1 (stereo not drawn) + CN1CCN(c2cc(C(=O)Nc3cc4cc(-c5cnn(C)c5)ccc4cn3)ccn2)CC1
IC50 [1]: < 31.6 nM | IC50 [2]: < 31.6 nM | IC50 [3]: < 31.6 nM | IC50 [4]: < 31.6 nM | IC50 [5]: < 31.6 nM | IC50 [6]: < 31.6 nM | viability, T/C [7]: 41% | viability, T/C [8]: 11.9% | viability, T/C [9]: 5.69% | viability, T/C [10]: 3.76% | viability, T/C [11]: 0.3% | viability, T/C [12]: 0.91% | viability, T/C [13]: 30.5% | viability, T/C [14]: 10.3% | viability, T/C [15]: 9.14% | viability, T/C [16]: 3.16% | viability, T/C [17]: 0.33% | viability, T/C [18]: 0.09% | viability, T/C [19]: 8.53% | viability, T/C [20]: 8.1% | viability, T/C [21]: 3.09% | viability, T/C [22]: 2.71% | viability, T/C [23]: 0.12% | viability, T/C [24]: 0.21% | viability, T/C [25]: 0.13% | viability, T/C [26]: 0.1% | viability, T/C [27]: 0.78% | viability, T/C [28]: 1.01% | viability, T/C [29]: 0.06% | viability, T/C [30]: 0.16% | viability, T/C [31]: 2.21% | viability, T/C [32]: 0.27% | viability, T/C [33]: 1.48% | viability, T/C [34]: 0.04% | viability, T/C [35]: 0.07% | viability, T/C [36]: 0.17% | viability, T/C [37]: 1.64% | viability, T/C [38]: 0.35% | viability, T/C [39]: 0.12% | viability, T/C [40]: 2.01% | viability, T/C [41]: 0.31% | viability, T/C [42]: 0.12%
